Key:
[1] = test system: CCRF-CEM; assay: Concentration required to reduce 50% of the number of CEM/O cells in the mock infected cell cultures.; format: functional; conditions: Homo sapiens
[2] = Selectivity index in the HIV-1 infected cell cultures.; format: functional
[3] = test system: CCRF-CEM; assay: Concentration required to reduce 50% of the number of CEM/O cells in the HIV-1 infected cell cultures.; format: functional, cell-based; conditions: Homo sapiens
[4] = test system: CCRF-CEM; assay: Concentration required to reduce 50% of the number of CEM/O cells in the HIV-2 infected cell cultures.; format: functional, cell-based; conditions: Homo sapiens
[5] = test system: CEM-TK(+); assay: Concentration required to reduce 50% of the number of CEM/TK cells in the HIV-2 infected cell cultures.; format: functional, cell-based; conditions: Homo sapiens

Compound	CC50 [1] [nM]	SI [2]	EC50 [3] [nM]	EC50 [4] [nM]	EC50 [5] [nM]
CCCCCCCCCCCCOCCOP(=O)(O)OCC1OC(n2cc(C)c(=O)[nH]c2=O)CC1N=[N+]=[N-] (stereo not drawn)	76900	669	115	133	> 50000
CCCCCCCCCCCCOC[C@H](C)OP(=O)(O)OCC1OC(n2cc(C)c(=O)[nH]c2=O)CC1N=[N+]=[N-] (stereo partly drawn)	88000	440	200	260	> 50000
Cc1cn(C2CC(N=[N+]=[N-])C(COP(=O)(O)OCCOc3cccc4ccccc34)O2)c(=O)[nH]c1=O (stereo not drawn)	> 125000	>9615	13	28	> 125000
CCCCCCCCCCCCO[C@@H](C)COP(=O)(O)OC[C@H]1O[C@@H](n2cc(C)c(=O)[nH]c2=O)C[C@@H]1N=[N+]=[N-]	94500	295	320	350	> 50000
CCCCCCCCCCCCOC[C@@H](C)OP(=O)(O)OCC1OC(n2cc(C)c(=O)[nH]c2=O)CC1N=[N+]=[N-] (stereo partly drawn)	95900	44	2170	2670	> 50000
Cc1cn(C2CC(N=[N+]=[N-])C(COP(=O)(O)OCCOc3ccc4ccccc4c3)O2)c(=O)[nH]c1=O (stereo not drawn)	> 125000	>8333	15	20	> 125000
Cc1cn(C2CC(N=[N+]=[N-])C(COP(=O)(O)OCCOc3ccccc3)O2)c(=O)[nH]c1=O (stereo not drawn)	> 125000	>6250	20	18	> 125000
CCCCCCCCCCCCO[C@H](C)COP(=O)(O)OCC1O[C@@H](n2cc(C)c(=O)[nH]c2=O)C[C@@H]1N=[N+]=[N-] (single isomer, unassigned)	93000	186	500	500	> 50000
Cc1cn([C@H]2C[C@H](N=[N+]=[N-])[C@@H](CO)O2)c(=O)[nH]c1=O [ZIDOVUDINE]	> 100000	>16666			> 100000

Source: ChEMBL document CHEMBL1129617, “Synthesis and antiretroviral evaluation of new alkoxy and aryloxy phosphate derivatives of 3'-azido-3'-deoxythymidine” (J Med Chem, 1996)
